Measurements as given in patent US20240277662A1, “Administration of a Compound to Individuals with Hepatic Impairment” (Arena Pharmaceuticals, Inc., priority 2021, published 2024).
Like-named read-outs stand apart in the source and are kept apart here.

Assays:
[1] = approximately 281 adult subjects treated at various doses; cited from earlier work
[2] = Safety and tolerability of a single oral dose of etrasimod in the hepatic impairment study; type: in vivo, human; conditions: single oral dose 2 mg; normal hepatic function or mild, moderate, severe hepatic impairment
Description: (§1) A study evaluated the effect of hepatic impairment on the PK, safety, and tolerability of etrasimod.
An open-label, parallel-group study included 36 patients (aged 18-80 years; body mass index ≥18) with hepatic impairment, based on Child-Pugh score at screening (mild=5-6 [n=8], moderate=7-9 [n=8], severe=10-14 [n=6]), and demographically matched control patients with normal hepatic function (n=14 total). The first patient with severe hepatic impairment was enrolled after ≥2 patients with mild hepatic impairment and ≥2 patients with moderate hepatic impairment had been enrolled and followed for ≥48 hours after dosing to ensure no significant safety signals were observed. […] Safety was assessed by adverse event monitoring, vital signs, physical and neurological examination, 12-lead electrocardiogram (ECG), and clinical laboratory evaluations. Plasma concentrations of etrasimod were determined via liquid chromatography-tandem mass spectrometry (LC-MS/MS) from matrix-matched calibration curves between 0.25 to 100.0 ng/ml and 0.1 to 120.4 ng/mL for total etrasimod (bound and unbound) and unbound etrasimod, respectively. Analyte LC-MS/MS quantitation reagents included an ACE C18 column, a 20-mM ammonium acetate/acetonitrile mobile phase, a Shimadzu LC pump and autosampler, and a Sciex API6500+MS with an electrospray probe in negative multiple reaction monitoring. […]

ulcerative colitis = conditions: UC patients, cited from earlier work
[3] = Open-label, parallel-group single-dose PK study of etrasimod in patients with hepatic impairment and matched controls; type: in vivo, human; conditions: single oral dose 2 mg; for half-life: po, 2 mg, read-out: t1/2, mean (converted)
Description: as §1
An open-label, parallel-group study included 36 patients (aged 18-80 years; body mass index ≥18) with hepatic impairment, based on Child-Pugh score at screening (mild=5-6 [n=8], moderate=7-9 [n=8], severe=10-14 [n=6]), and demographically matched control patients with normal hepatic function (n=14 total). The first patient with severe hepatic impairment was enrolled after ≥2 patients with mild hepatic impairment and ≥2 patients with moderate hepatic impairment had been enrolled and followed for ≥48 hours after dosing to ensure no significant safety signals were observed. On Day 1, patients received a single oral dose of etrasimod 2 mg after ≥10-hour fast. PK and safety data were collected over 21 days. Safety was assessed by adverse event monitoring, vital signs, physical and neurological examination, 12-lead electrocardiogram (ECG), and clinical laboratory evaluations. Plasma concentrations of etrasimod were determined via liquid chromatography-tandem mass spectrometry (LC-MS/MS) from matrix-matched calibration curves between 0.25 to 100.0 ng/ml and 0.1 to 120.4 ng/mL for total etrasimod (bound and unbound) and unbound etrasimod, respectively. Analyte LC-MS/MS quantitation reagents included an ACE C18 column, a 20-mM ammonium acetate/acetonitrile mobile phase, a Shimadzu LC pump and autosampler, and a Sciex API6500+MS with an electrospray probe in negative multiple reaction monitoring. Plasma protein-free supernatant was collected via ultracentrifugation at 223,000 g for 4 hours. Unbound etrasimod concentrations were only measured four hours post dose and results assumed to apply to other PK collection times. For protein precipitation, acetonitrile was applied to a 1:1 mixed matrix of plasma: supernatant. The positive control was warfarin. Plasma concentrations and PK parameters were summarized by hepatic function using descriptive statistics. Unbound etrasimod PK parameters were based on total etrasimod PK parameters adjusted by percent unbound. Mean plasma concentration-time profiles were presented graphically. Phoenix WinNonlin (CertaraUSA, Inc.) was used for PK analysis.

O=C(O)C[C@H]1CCc2c1[nH]c1ccc(OCc3ccc(C4CCCC4)c(C(F)(F)F)c3)cc21 [Compound 1, (R)-2-(7-(4-cyclopentyl-3-(trifluoromethyl)benzyloxy)-1,2,3,4-tetrahydrocyclopenta[b]indol-3-yl)acetic acid]
safety and tolerability [1]: safe and well-tolerated
safety findings [2]: no clinically significant safety findings
tolerability [2]: well tolerated
endoscopic and symptomatic improvements versus placebo (ulcerative colitis; 2 mg QD for 12 weeks): clinically meaningful and statistically significant endoscopic and symptomatic improvements
beneficial effects in open-label extension study (ulcerative colitis; up to 46 weeks): Sustained beneficial effects
half-life ([3]; human, plasma, demographically matched normal control groups): 1.83 to 2.48 days
half-life ([3]; human, plasma, mild hepatic impairment group): 2.32 days
half-life ([3]; human, plasma, moderate hepatic impairment group): 2.9 days
half-life ([3]; human, plasma, severe hepatic impairment group): 3.19 days
Tmax ([3]; human, fasted, across all groups, plasma, read-out: median tmax): 4 to 8 h
unbound etrasimod AUC vs demographically matched normal control groups ([3]; all hepatic impairment groups): typically comparable
mean plasma concentration-time profiles ([3]; moderate and severe hepatic impairment groups): slightly higher
mean plasma concentration-time profiles ([3]; normal hepatic function vs mild hepatic impairment groups): overlapped
changes in etrasimod exposure ([3]; patients with mild, moderate or severe hepatic impairment): relatively modest changes
unbound etrasimod Cmax, lower vs demographically matched normal control groups ([3]; progressively lower in mild, moderate and severe hepatic impairment groups): up to 42.0%
peak exposure (Cmax) vs demographically matched normal control groups ([3]; total etrasimod, all hepatic impairment groups): comparable
